# Reference: paper PMC6218659, “Structures of DPAGT1 Explain Glycosylation Disease Mechanisms and Advance TB Antibiotic Design” (Cell, 2018)
# Like-named read-outs stand apart in the source and are kept apart here.
# Key:
# Mtb H37Rv ATCC27294 = experiment: Minimum inhibitory concentrations testing against Mtb; type: cell-based, Mycobacterium tuberculosis; conditions: for MIC: Mycobacterium tuberculosis, 168 h; for Relative Therapeutic Index (RTI), Mtb H37RV a / Relative Therapeutic Index (RTI), Mtb H37RV b: minimal lethal dose / MIC, 800 μg mL-1 used for >400; for Relative Therapeutic Index (RTI), Mtb H37RV a: 7H9/ADC/Tw; for Relative Therapeutic Index (RTI), Mtb H37RV b: GAST/Fe
# [1] = system: Mtb-infected J774A.1 macrophages; experiment: Efficacy against Mtb growing in infected macrophages; conditions: J774A.1 macrophages treated 3 or 7 days
# Raji cells = experiment: Cell proliferation assay (MTS); type: cell-based, human; conditions: 24 hrs
# Experimental: (§1) In sterile 96-well plate, each well was seeded with ∼1x10^5 cells. The cells are then grown confluent overnight in 100 μl DMEM with 10% FBS. The medium is replenished with DMEM with 2% FBS and added vehicle control or test substance the next day. For test substance in methanol, stock was added to 25 μl of DMEM with 2% FBS or PBS and placed in the laminar flow hood to let the methanol evaporate (about 1-3 hrs). Once the methanol has evaporated, DMEM with 2% FBS was added to final volume of 100 μl of desired test concentration. […] Cells are grown for additional 24 hrs. The cell viability was determined by using Promega CellTiter 96^© AQueous One Solution Cell Proliferation Assay (3-(4,5-dimethylthiazol-2-yl)-5-(3-carboxymethoxyphenyl)-2-(4-sulfophenyl)-2H-tetrazolium, inner salt; MTS) System following the manufacture protocol.
# HepG2 cells = experiment: Cell proliferation assay (MTS); type: cell-based, human; conditions: for LD50 values, HepG2: MTS cell proliferation assay, 24 hrs, highest concentration 400 µg mL-1; for Minimal Lethal Dose, HepG2: serial 2-fold dilutions (Table S6)
# Experimental: as §1
# HEK293 cells = experiment: Cell proliferation assay (MTS); type: cell-based, human; conditions: for LD50 values, HEK293: MTS cell proliferation assay, 24 hrs, highest concentration 400 µg mL-1; for Minimal Lethal Dose, HEK 293: serial 2-fold dilutions (Table S6)
# Experimental: as §1
# B. cereus ATCC11778 = experiment: Micro-broth dilution and drop plate antimicrobial susceptibility test; type: cell-based, Bacillus cereus; conditions: for IC50 / MBC / MIC: Bacillus cereus; for Relative Therapeutic Index (RTI), B. cereus NRRL 11778: minimal lethal dose / MIC, 800 μg mL-1 used for >400
# Experimental: (§2) In a sterile 96-well plate, serial dilutions were made with the test substance to final volume of 50 μl. Inoculum was then prepared in Mueller-Hinton broth to 0.5 McFarland and diluted before adding 50 μl to the well to make ∼1x10^5 CFU/ml. The culture plate was incubated at 35 °C for 20-24 hrs. A positive growth control and sterility wells were also prepared along with the culture wells. Absorbance at OD600 was taken using BMG Labtech SPECTROstar Omega spectrophotometer. MIC is determined by the lowest concentration without growth. IC50 is determined from plotting a dose-response curve, see Data Analysis below. To determine the MBC, using a multi-channel pipette, 1 μl of culture broth was taken from the same 96-well microdilution growth plate and carefully inoculated on surface of MH agar plate. The plate is then incubated for additional 20 hrs. at 35 °C. The MBC value is the lowest concentration without observed growth on the agar.
# B. subtilis EC1524 = experiment: as above; type: cell-based, Bacillus subtilis; conditions: for Relative Therapeutic Index (RTI), B. subtilis EC1524: minimal lethal dose / MIC, 800 μg mL-1 used for >400
# Experimental: as §2
# S. aureus ATCC29219 = experiment: as above; type: cell-based; conditions: Staphylococcus aureus
# Experimental: as §2
# E. coli ATCC25922 = experiment: as above; type: cell-based; conditions: Escherichia coli
# Experimental: as §2
# P. aeruginosa ATCC27853 = experiment: as above; type: cell-based; conditions: Pseudomonas aeruginosa
# Experimental: as §2
# DPAGT1 = target: T1, DPAGT1 (Homo sapiens, UniProt Q9H3H5); experiment: Radiolabeled substrate enzyme activity assay; type: biochemical, H. sapiens; conditions: purified DPAGT1 enzyme, Figure 6F
# T1 construct: H. sapiens DPAGT1 (1-408, N-terminal 6 x HIS tag, TEV cleavage site); 6xHis purification tag with TEV site (N, cleaved yes); made in house; host or cells: Spodoptera frugiperda Sf9 insect cells (baculovirus)
# T1 sequence (Q9H3H5 1-408): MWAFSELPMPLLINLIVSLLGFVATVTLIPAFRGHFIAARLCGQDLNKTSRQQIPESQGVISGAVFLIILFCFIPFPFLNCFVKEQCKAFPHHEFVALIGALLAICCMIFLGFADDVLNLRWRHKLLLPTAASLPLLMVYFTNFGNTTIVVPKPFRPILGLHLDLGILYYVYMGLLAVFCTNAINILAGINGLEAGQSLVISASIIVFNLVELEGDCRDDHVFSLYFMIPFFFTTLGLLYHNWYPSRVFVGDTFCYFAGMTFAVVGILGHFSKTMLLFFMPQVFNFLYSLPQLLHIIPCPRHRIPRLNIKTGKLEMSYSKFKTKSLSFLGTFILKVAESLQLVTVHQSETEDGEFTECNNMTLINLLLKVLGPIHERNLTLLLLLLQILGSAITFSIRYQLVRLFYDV
# Experimental: 2 μl of 2 μM DPAGT1 WT or mutant proteins in GFB buffer supplemented with 5mM extra MgCl2, 1% OGNG/CHS/cardiolipin and dolichyl monophosphate was combined with 2 μl of UDP-N-acetyl [1-14C] […] The reaction was terminated by the addition of 6 μl of 100% methanol and immediately transferred onto ice. 1 μl of sample was spotted onto a silica coated TLC plate in triplicate and run with a mobile phase consisting of chloroform, methanol, and water at a 65:25:4 ratio respectively. After the run, the TLC plate was dried thoroughly, wrapped in cling film, incubated with a phosphor imaging substrate for 4 days, then phosphor imaged using a Biorad. The pixel density of the spots corresponding to the hydrophobic product was divided by combined pixel density of the product and the substrate and multiplied by the known concentration of substrate added to ascertain the amount of product formed.
# [2] = read-out: 1-week MIC in 7H9/ADC/Tw
# [3] = read-out: 1-week MIC in GAST/Fe
# [4] = read-out: Minimal Inhibitory Concentration, Mtb H37RV a
# [5] = read-out: Minimal Inhibitory Concentration, Mtb H37RV b
# [6] = ATCC 11778 / NRRL11778, read-out: Minimal Inhibitory Concentration, B. cereus NRRL 11778
# [7] = Bacillus subtilis, EC1524, read-out: Minimal Inhibitory Concentration, B. subtilis EC1524
compound,measurement,setting,value
"CCCCCCCCCCC(=O)N[C@H]1[C@H](O[C@H]2O[C@H](CO)[C@@H](O)[C@H](O)[C@H]2NC(=O)CCCCCCCCCC)O[C@H](C[C@@H](O)[C@H]2O[C@@H](n3ccc(=O)[nH]c3=O)[C@H](O)[C@@H]2O)[C@H](O)[C@@H]1O [TUN-11,11, Di-N-undecanoyl-tunicamycin]",MIC,Mtb H37Rv ATCC27294; [2],4.1 ± 2.2 µg/mL
same,MIC,Mtb H37Rv ATCC27294; [3],1.6 ± 1.6 µg/mL
same,MIC,Mtb H37Rv ATCC27294; [4],4.1 µg/mL
same,MIC,Mtb H37Rv ATCC27294; [5],1.6 µg/mL
same,"Relative Therapeutic Index (RTI), Mtb H37RV a",Mtb H37Rv ATCC27294,195
same,"Relative Therapeutic Index (RTI), Mtb H37RV b",Mtb H37Rv ATCC27294,500
same,reduction of intracellular bacterial burdens,[1]; 1 × MIC,1 logs
same,reduction of intracellular bacterial burdens,[1]; 10 × MIC,2 logs
same,"LD50 values, Raji",Raji cells,103.65 ± 34.34 µg/mL
same,"LD50 values, HepG2",HepG2 cells,"N/A (N/A = not available. No or low cytotoxicity observed at highest, saturating concentration tested (400 µg mL-1))"
same,"Minimal Lethal Dose, HepG2",HepG2 cells,> 400 µg/mL
same,"LD50 values, HEK293",HEK293 cells,"N/A (N/A = not available. No or low cytotoxicity observed at highest, saturating concentration tested (400 µg mL-1))"
same,"Minimal Lethal Dose, HEK 293",HEK293 cells,> 400 µg/mL
same,IC50,B. cereus ATCC11778; ATCC11778,0.088 µg/mL
same,MBC,B. cereus ATCC11778; ATCC11778,> 25 µg/mL
same,MIC,B. cereus ATCC11778; ATCC11778,0.65 ± 0.23 µg/mL
same,MIC,B. cereus ATCC11778; [6],0.78 µg/mL
same,"Relative Therapeutic Index (RTI), B. cereus NRRL 11778",B. cereus ATCC11778,1026
same,IC50,"B. subtilis EC1524; Bacillus subtilis, EC1524",0.85 ± 0.28 µg/mL
same,MBC,"B. subtilis EC1524; Bacillus subtilis, EC1524",> 1.56 µg/mL
same,MIC,"B. subtilis EC1524; Bacillus subtilis, EC1524",1.3 ± 0.45 µg/mL
same,MIC,B. subtilis EC1524; [7],1.56 µg/mL
same,"Relative Therapeutic Index (RTI), B. subtilis EC1524",B. subtilis EC1524,513
same,IC50,S. aureus ATCC29219,58 µg/mL
same,MBC,S. aureus ATCC29219,400 µg/mL
same,MIC,S. aureus ATCC29219,170 ± 60 µg/mL
same,IC50,E. coli ATCC25922,131 µg/mL
same,MBC,E. coli ATCC25922,400 µg/mL
same,MIC,E. coli ATCC25922,330 ± 120 µg/mL
same,IC50,P. aeruginosa ATCC27853,63.2 µg/mL
same,MBC,P. aeruginosa ATCC27853,400 µg/mL
same,MIC,P. aeruginosa ATCC27853,83 ± 29 µg/mL
"CCCCCCCCC(=O)N[C@H]1[C@H](O[C@H]2O[C@H](CO)[C@@H](O)[C@H](O)[C@H]2NC(=O)CCCCCCCC)O[C@H](C[C@@H](O)[C@H]2O[C@@H](n3ccc(=O)[nH]c3=O)[C@H](O)[C@@H]2O)[C@H](O)[C@@H]1O [TUN-9,9, Di-N-nonanoyl-tunicamycin]",1-week MIC in GAST/Fe,"Mtb H37Rv ATCC27294; Mtb H37Rv, minimal growth medium",0.03 ± 0.001 µg/mL
same,potency (MIC) relative to tunicamycin,"Mtb H37Rv ATCC27294; Mtb H37Rv, more potent than tunicamycin",~5 fold
same,MIC,Mtb H37Rv ATCC27294; [2],0.2 ± 0.02 µg/mL
same,MIC,Mtb H37Rv ATCC27294; [3],0.03 ± 0.001 µg/mL
same,MIC,Mtb H37Rv ATCC27294; [4],0.2 µg/mL
same,MIC,Mtb H37Rv ATCC27294; [5],0.03 µg/mL
same,"Relative Therapeutic Index (RTI), Mtb H37RV a",Mtb H37Rv ATCC27294,4000
same,"Relative Therapeutic Index (RTI), Mtb H37RV b",Mtb H37Rv ATCC27294,27000
same,reduction of intracellular bacterial burdens,[1]; 1 × MIC,1 logs
same,reduction of intracellular bacterial burdens,[1]; 10 × MIC,2 logs
same,"LD50 values, Raji",Raji cells,355.57 ± 194.57 µg/mL
same,"LD50 values, HepG2",HepG2 cells,"N/A (N/A = not available. No or low cytotoxicity observed at highest, saturating concentration tested (400 µg mL-1))"
same,"Minimal Lethal Dose, HepG2",HepG2 cells,> 400 µg/mL
same,"LD50 values, HEK293",HEK293 cells,"N/A (N/A = not available. No or low cytotoxicity observed at highest, saturating concentration tested (400 µg mL-1))"
same,"Minimal Lethal Dose, HEK 293",HEK293 cells,> 400 µg/mL
same,IC50,B. cereus ATCC11778; ATCC11778,0.072 µg/mL
same,MBC,B. cereus ATCC11778; ATCC11778,> 25 µg/mL
same,MIC,B. cereus ATCC11778; ATCC11778,0.65 ± 0.23 µg/mL
same,MIC,B. cereus ATCC11778; [6],0.78 µg/mL
same,"Relative Therapeutic Index (RTI), B. cereus NRRL 11778",B. cereus ATCC11778,1026
same,effect on DPAGT1 catalytic activity,DPAGT1,negligible effect
same,MIC,"B. subtilis EC1524; B. subtilis, micro-broth dilution, mean ± SEM (n=3)",0.02 ± 0.01 µg/mL
same,IC50,"B. subtilis EC1524; Bacillus subtilis, EC1524",0.015 µg/mL
same,MBC,"B. subtilis EC1524; Bacillus subtilis, EC1524",> 0.05 µg/mL
same,MIC,"B. subtilis EC1524; Bacillus subtilis, EC1524",0.02 ± 0.01 µg/mL
same,MIC,B. subtilis EC1524; [7],0.024 µg/mL
same,"Relative Therapeutic Index (RTI), B. subtilis EC1524",B. subtilis EC1524,33300
same,IC50,S. aureus ATCC29219,48.9 µg/mL
same,MBC,S. aureus ATCC29219,400 µg/mL
same,MIC,S. aureus ATCC29219,83 ± 29 µg/mL
same,IC50,E. coli ATCC25922,87.1 µg/mL
same,MBC,E. coli ATCC25922,400 µg/mL
same,MIC,E. coli ATCC25922,330 ± 120 µg/mL
same,IC50,P. aeruginosa ATCC27853,55 µg/mL
same,MBC,P. aeruginosa ATCC27853,400 µg/mL
same,MIC,P. aeruginosa ATCC27853,83 ± 29 µg/mL
